Reference: the supplement of paper PMC10307832

Legend:
Test in all cases: relative viability (nuclei count vs DMSO), 5 days (fraction); higher = more cells survive
Linsitinib + Trametinib = compound: C[C@]1(O)C[C@@H](c2nc(-c3ccc4ccc(-c5ccccc5)nc4c3)c3c(N)nccn32)C1 [Linsitinib] + CC(=O)Nc1cccc(-n2c(=O)n(C3CC3)c(=O)c3c(Nc4ccc(I)cc4F)n(C)c(=O)c(C)c32)c1 [Trametinib] (partner 0.02 µM)
How it was run: (§1)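 Relative viability equals treated-well nuclei counts divided by vehicle-well nuclei counts. Counts came from 4× images of lung cancer cell lines grown in 1536-well plates for 5 days after pin-tool dosing on the day after seeding. Dosing used one drug alone or a fixed anchor-drug dose plus five library-drug doses (not always all listed) in √10 steps, and values are medians of duplicate plates.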

Linsitinib + Dasatinib = compound: C[C@]1(O)C[C@@H](c2nc(-c3ccc4ccc(-c5ccccc5)nc4c3)c3c(N)nccn32)C1 [Linsitinib] + Cc1nc(Nc2ncc(C(=O)Nc3c(C)cccc3Cl)s2)cc(N2CCN(CCO)CC2)n1 [Dasatinib] (partner 0.075 µM)
How it was run: as §1

Linsitinib + Decitabine = compound: C[C@]1(O)C[C@@H](c2nc(-c3ccc4ccc(-c5ccccc5)nc4c3)c3c(N)nccn32)C1 [Linsitinib] + Nc1ncn([C@H]2C[C@H](O)[C@@H](CO)O2)c(=O)n1 [Decitabine] (partner 2 µM)
How it was run: as §1

Linsitinib + Vorinostat = compound: C[C@]1(O)C[C@@H](c2nc(-c3ccc4ccc(-c5ccccc5)nc4c3)c3c(N)nccn32)C1 [Linsitinib] + O=C(CCCCCCC(=O)Nc1ccccc1)NO [Vorinostat] (partner 1 µM)
How it was run: as §1

NCI-H522 gave a relative viability (Linsitinib + Trametinib; first compound 0.01 µM) of 0.918, a relative viability (Linsitinib + Trametinib; first compound 0.03162 µM) of 0.784 and a relative viability (Linsitinib + Trametinib; first compound 0.1 µM) of 0.714. The relative viability (Linsitinib + Trametinib; first compound 0.3162 µM) was 0.613, the relative viability (Linsitinib + Trametinib; first compound 1 µM) was 0.582 and the relative viability (Linsitinib + Dasatinib; first compound 0.01 µM) was 0.829. It also gave a relative viability (Linsitinib + Dasatinib; first compound 0.03162 µM) of 1.03, a relative viability (Linsitinib + Dasatinib; first compound 0.1 µM) of 0.902 and a relative viability (Linsitinib + Dasatinib; first compound 1 µM) of 0.86. It also gave a relative viability (Linsitinib + Decitabine; first compound 0.01 µM) of 0.657, a relative viability (Linsitinib + Decitabine; first compound 0.03162 µM) of 0.773 and a relative viability (Linsitinib + Decitabine; first compound 0.1 µM) of 0.614. For the same cell line, the relative viability (Linsitinib + Decitabine; first compound 0.3162 µM) was 0.688, the relative viability (Linsitinib + Decitabine; first compound 1 µM) was 0.587 and the relative viability (Linsitinib + Vorinostat; first compound 0.01 µM) was 0.892. It also gave a relative viability (Linsitinib + Vorinostat; first compound 0.03162 µM) of 1, a relative viability (Linsitinib + Vorinostat; first compound 0.1 µM) of 0.791 and a relative viability (Linsitinib + Vorinostat; first compound 0.3162 µM) of 0.499. The relative viability (Linsitinib + Vorinostat; first compound 1 µM) was 0.727.
For NCI-H596, the relative viability (Linsitinib + Trametinib; first compound 0.01 µM) was 0.705, the relative viability (Linsitinib + Trametinib; first compound 0.03162 µM) was 0.715 and the relative viability (Linsitinib + Trametinib; first compound 0.1 µM) was 0.74. The relative viability (Linsitinib + Trametinib; first compound 0.3162 µM) was 0.827, the relative viability (Linsitinib + Trametinib; first compound 1 µM) was 0.732 and the relative viability (Linsitinib + Dasatinib; first compound 0.01 µM) was 0.643. The relative viability (Linsitinib + Dasatinib; first compound 0.03162 µM) was 0.673, the relative viability (Linsitinib + Dasatinib; first compound 0.1 µM) was 0.625 and the relative viability (Linsitinib + Dasatinib; first compound 0.3162 µM) was 0.647. For the same cell line, the relative viability (Linsitinib + Dasatinib; first compound 1 µM) was 0.437, the relative viability (Linsitinib + Decitabine; first compound 0.01 µM) was 1.03 and the relative viability (Linsitinib + Decitabine; first compound 0.03162 µM) was 1.06. For the same cell line, the relative viability (Linsitinib + Decitabine; first compound 0.1 µM) was 1.11, the relative viability (Linsitinib + Decitabine; first compound 0.3162 µM) was 0.976 and the relative viability (Linsitinib + Decitabine; first compound 1 µM) was 1.01. It also gave a relative viability (Linsitinib + Vorinostat; first compound 0.01 µM) of 0.583, a relative viability (Linsitinib + Vorinostat; first compound 0.03162 µM) of 0.584 and a relative viability (Linsitinib + Vorinostat; first compound 0.1 µM) of 0.597. It also gave a relative viability (Linsitinib + Vorinostat; first compound 0.3162 µM) of 0.49 and a relative viability (Linsitinib + Vorinostat; first compound 1 µM) of 0.593.
With NCI-H647 the relative viability (Linsitinib + Trametinib; first compound 0.01 µM) was 0.478, the relative viability (Linsitinib + Trametinib; first compound 0.03162 µM) was 0.509 and the relative viability (Linsitinib + Trametinib; first compound 0.1 µM) was 0.436. It also gave a relative viability (Linsitinib + Trametinib; first compound 0.3162 µM) of 0.338, a relative viability (Linsitinib + Trametinib; first compound 1 µM) of 0.351 and a relative viability (Linsitinib + Dasatinib; first compound 0.01 µM) of 0.206. For the same cell line, the relative viability (Linsitinib + Dasatinib; first compound 0.03162 µM) was 0.203, the relative viability (Linsitinib + Dasatinib; first compound 0.1 µM) was 0.165 and the relative viability (Linsitinib + Dasatinib; first compound 1 µM) was 0.158. The relative viability (Linsitinib + Decitabine; first compound 0.01 µM) was 0.39, the relative viability (Linsitinib + Decitabine; first compound 0.03162 µM) was 0.524 and the relative viability (Linsitinib + Decitabine; first compound 0.1 µM) was 0.395. The relative viability (Linsitinib + Decitabine; first compound 0.3162 µM) was 0.405, the relative viability (Linsitinib + Decitabine; first compound 1 µM) was 0.43 and the relative viability (Linsitinib + Vorinostat; first compound 0.01 µM) was 0.57. For the same cell line, the relative viability (Linsitinib + Vorinostat; first compound 0.03162 µM) was 0.583, the relative viability (Linsitinib + Vorinostat; first compound 0.1 µM) was 0.458 and the relative viability (Linsitinib + Vorinostat; first compound 0.3162 µM) was 0.368. It also gave a relative viability (Linsitinib + Vorinostat; first compound 1 µM) of 0.646.
NCI-H650 showed a relative viability (Linsitinib + Trametinib; first compound 0.01 µM) of 1.04, a relative viability (Linsitinib + Trametinib; first compound 0.03162 µM) of 1.06 and a relative viability (Linsitinib + Trametinib; first compound 0.1 µM) of 0.902. For the same cell line, the relative viability (Linsitinib + Trametinib; first compound 1 µM) was 0.87, the relative viability (Linsitinib + Dasatinib; first compound 0.01 µM) was 0.45 and the relative viability (Linsitinib + Dasatinib; first compound 0.03162 µM) was 0.432. It also gave a relative viability (Linsitinib + Dasatinib; first compound 0.1 µM) of 0.47, a relative viability (Linsitinib + Dasatinib; first compound 0.3162 µM) of 0.374 and a relative viability (Linsitinib + Dasatinib; first compound 1 µM) of 0.325. For the same cell line, the relative viability (Linsitinib + Decitabine; first compound 0.01 µM) was 0.313, the relative viability (Linsitinib + Decitabine; first compound 0.03162 µM) was 0.396 and the relative viability (Linsitinib + Decitabine; first compound 0.1 µM) was 0.287. It also gave a relative viability (Linsitinib + Decitabine; first compound 1 µM) of 0.306, a relative viability (Linsitinib + Vorinostat; first compound 0.01 µM) of 0.438 and a relative viability (Linsitinib + Vorinostat; first compound 0.03162 µM) of 0.359. For the same cell line, the relative viability (Linsitinib + Vorinostat; first compound 0.1 µM) was 0.432 and the relative viability (Linsitinib + Vorinostat; first compound 1 µM) was 0.394.
NCI-H661 gave a relative viability (Linsitinib + Trametinib; first compound 0.01 µM) of 0.657, a relative viability (Linsitinib + Trametinib; first compound 0.03162 µM) of 0.616 and a relative viability (Linsitinib + Trametinib; first compound 0.1 µM) of 0.533. The relative viability (Linsitinib + Trametinib; first compound 0.3162 µM) was 0.598, the relative viability (Linsitinib + Trametinib; first compound 1 µM) was 0.548 and the relative viability (Linsitinib + Dasatinib; first compound 0.01 µM) was 0.899. It also gave a relative viability (Linsitinib + Dasatinib; first compound 0.03162 µM) of 0.815, a relative viability (Linsitinib + Dasatinib; first compound 0.1 µM) of 0.946 and a relative viability (Linsitinib + Dasatinib; first compound 0.3162 µM) of 0.722. For the same cell line, the relative viability (Linsitinib + Dasatinib; first compound 1 µM) was 0.768, the relative viability (Linsitinib + Decitabine; first compound 0.01 µM) was 0.545 and the relative viability (Linsitinib + Decitabine; first compound 0.03162 µM) was 0.676. It also gave a relative viability (Linsitinib + Decitabine; first compound 0.1 µM) of 0.536, a relative viability (Linsitinib + Decitabine; first compound 0.3162 µM) of 0.492 and a relative viability (Linsitinib + Decitabine; first compound 1 µM) of 0.535. The relative viability (Linsitinib + Vorinostat; first compound 0.01 µM) was 0.76, the relative viability (Linsitinib + Vorinostat; first compound 0.03162 µM) was 0.829 and the relative viability (Linsitinib + Vorinostat; first compound 0.1 µM) was 0.75. For the same cell line, the relative viability (Linsitinib + Vorinostat; first compound 0.3162 µM) was 0.699 and the relative viability (Linsitinib + Vorinostat; first compound 1 µM) was 0.825.
NCI-H727 was tested, and the relative viability (Linsitinib + Trametinib; first compound 0.01 µM) was 0.349, the relative viability (Linsitinib + Trametinib; first compound 0.03162 µM) was 0.403 and the relative viability (Linsitinib + Trametinib; first compound 0.1 µM) was 0.317. It also gave a relative viability (Linsitinib + Trametinib; first compound 0.3162 µM) of 0.358, a relative viability (Linsitinib + Trametinib; first compound 1 µM) of 0.29 and a relative viability (Linsitinib + Dasatinib; first compound 0.01 µM) of 0.421. For the same cell line, the relative viability (Linsitinib + Dasatinib; first compound 0.03162 µM) was 0.274, the relative viability (Linsitinib + Dasatinib; first compound 0.1 µM) was 0.372 and the relative viability (Linsitinib + Dasatinib; first compound 0.3162 µM) was 0.252. The relative viability (Linsitinib + Dasatinib; first compound 1 µM) was 0.252, the relative viability (Linsitinib + Decitabine; first compound 0.01 µM) was 0.671 and the relative viability (Linsitinib + Decitabine; first compound 0.03162 µM) was 1.05. It also gave a relative viability (Linsitinib + Decitabine; first compound 0.1 µM) of 0.752, a relative viability (Linsitinib + Decitabine; first compound 0.3162 µM) of 0.58 and a relative viability (Linsitinib + Decitabine; first compound 1 µM) of 0.63. It also gave a relative viability (Linsitinib + Vorinostat; first compound 0.01 µM) of 0.978, a relative viability (Linsitinib + Vorinostat; first compound 0.03162 µM) of 1.4 and a relative viability (Linsitinib + Vorinostat; first compound 0.1 µM) of 1.08. The relative viability (Linsitinib + Vorinostat; first compound 0.3162 µM) was 0.82 and the relative viability (Linsitinib + Vorinostat; first compound 1 µM) was 0.927.
NCI-H838 showed a relative viability (Linsitinib + Trametinib; first compound 0.01 µM) of 0.464, a relative viability (Linsitinib + Trametinib; first compound 0.03162 µM) of 0.498 and a relative viability (Linsitinib + Trametinib; first compound 0.1 µM) of 0.435. It also gave a relative viability (Linsitinib + Trametinib; first compound 0.3162 µM) of 0.333, a relative viability (Linsitinib + Trametinib; first compound 1 µM) of 0.369 and a relative viability (Linsitinib + Dasatinib; first compound 0.01 µM) of 0.273. It also gave a relative viability (Linsitinib + Dasatinib; first compound 0.03162 µM) of 0.258, a relative viability (Linsitinib + Dasatinib; first compound 0.1 µM) of 0.267 and a relative viability (Linsitinib + Dasatinib; first compound 0.3162 µM) of 0.227. It also gave a relative viability (Linsitinib + Dasatinib; first compound 1 µM) of 0.225, a relative viability (Linsitinib + Decitabine; first compound 0.01 µM) of 0.462 and a relative viability (Linsitinib + Decitabine; first compound 0.03162 µM) of 0.581. It also gave a relative viability (Linsitinib + Decitabine; first compound 0.1 µM) of 0.452, a relative viability (Linsitinib + Decitabine; first compound 0.3162 µM) of 0.284 and a relative viability (Linsitinib + Decitabine; first compound 1 µM) of 0.405. For the same cell line, the relative viability (Linsitinib + Vorinostat; first compound 0.01 µM) was 0.704, the relative viability (Linsitinib + Vorinostat; first compound 0.03162 µM) was 0.645 and the relative viability (Linsitinib + Vorinostat; first compound 0.1 µM) was 0.652. For the same cell line, the relative viability (Linsitinib + Vorinostat; first compound 0.3162 µM) was 0.517 and the relative viability (Linsitinib + Vorinostat; first compound 1 µM) was 0.545.
Cell Line NCI-H1355 has a relative viability (Linsitinib + Trametinib; first compound 0.01 µM) of 0.424, a relative viability (Linsitinib + Trametinib; first compound 0.03162 µM) of 0.353 and a relative viability (Linsitinib + Trametinib; first compound 0.1 µM) of 0.352. For the same cell line, the relative viability (Linsitinib + Trametinib; first compound 0.3162 µM) was 0.323, the relative viability (Linsitinib + Trametinib; first compound 1 µM) was 0.246 and the relative viability (Linsitinib + Dasatinib; first compound 0.01 µM) was 0.627. For the same cell line, the relative viability (Linsitinib + Dasatinib; first compound 0.03162 µM) was 0.68, the relative viability (Linsitinib + Dasatinib; first compound 0.1 µM) was 0.518 and the relative viability (Linsitinib + Dasatinib; first compound 0.3162 µM) was 0.525. For the same cell line, the relative viability (Linsitinib + Dasatinib; first compound 1 µM) was 0.254, the relative viability (Linsitinib + Decitabine; first compound 0.01 µM) was 0.378 and the relative viability (Linsitinib + Decitabine; first compound 0.03162 µM) was 0.353. It also gave a relative viability (Linsitinib + Decitabine; first compound 0.1 µM) of 0.334, a relative viability (Linsitinib + Decitabine; first compound 0.3162 µM) of 0.309 and a relative viability (Linsitinib + Decitabine; first compound 1 µM) of 0.317. For the same cell line, the relative viability (Linsitinib + Vorinostat; first compound 0.01 µM) was 0.66, the relative viability (Linsitinib + Vorinostat; first compound 0.03162 µM) was 0.65 and the relative viability (Linsitinib + Vorinostat; first compound 0.1 µM) was 0.574. It also gave a relative viability (Linsitinib + Vorinostat; first compound 0.3162 µM) of 0.444 and a relative viability (Linsitinib + Vorinostat; first compound 1 µM) of 0.311.
